Results as given in publication PMC8379015, “Resistance of Mycobacterium tuberculosis to indole 4-carboxamides occurs through alterations in drug metabolism and tryptophan biosynthesis” (Cell Chemical Biology, 2021).
Converted amounts (≈) assume the structure as drawn.

Assays:
[1] = system: M. tuberculosis H37Rv mutant 5G (amiC S157F); format: cell-based, Mycobacterium tuberculosis
[2] = system: M. tuberculosis H37Rv mutant 5K (trpB A134V); format: cell-based, Mycobacterium tuberculosis
[3] = system: M. tuberculosis H37Rv mutant 5O (trpB D261G); format: cell-based, Mycobacterium tuberculosis
[4] = system: M. tuberculosis H37Rv mutant 5M (trpB D261G); format: cell-based, Mycobacterium tuberculosis
[5] = system: M. tuberculosis H37Rv mutant 5L (trpE H170R); format: cell-based, Mycobacterium tuberculosis
[6] = system: M. tuberculosis H37Rv mutant 5H (amiC + g in aa352); format: cell-based, Mycobacterium tuberculosis
[7] = system: M. tuberculosis H37Rv mutant 5B (amiC W238∗); format: cell-based, Mycobacterium tuberculosis
[8] = system: M. tuberculosis H37Rv mutant 5I (amiC + g in aa352); format: cell-based, Mycobacterium tuberculosis
[9] = system: M. tuberculosis H37Rv recombineered trpB / trpE mutant strains; format: cell-based, Mycobacterium tuberculosis
[10] = system: M. tuberculosis H37Rv mutant 5N (trpA D54G); format: cell-based, Mycobacterium tuberculosis
[11] = system: C1-resistant mutants of M. tuberculosis; format: cell-based, Mycobacterium tuberculosis
[12] = system: M. tuberculosis H37Rv mutant 5J (trpB A168V); format: cell-based, Mycobacterium tuberculosis
[13] = system: M. tuberculosis H37Rv mutant 5A (amiC K195∗); format: cell-based, Mycobacterium tuberculosis
[14] = target: TrpE H170R (Mycobacterium tuberculosis, UniProt P9WFX3, H170R); format: biochemical
[15] = system: C5R mutants of Mtb; format: cell-based, Mycobacterium tuberculosis
[16] = system: M. tuberculosis H37Rv overexpressing AmiC (rv2888c, Psmyc); format: cell-based, Mycobacterium tuberculosis

| Compound | MIC [1] [µM] | MIC [2] [µM] | MIC [3] [µM] | MIC [4] [µM] | MIC [5] [µM] | MIC [6] [µM] | MIC [7] [µM] | MIC [8] [µM] | resistance of recombineered strains [9] | MIC [10] [µM] | cross-resistance of C1-resistant mutants [11] | MIC [12] [µM] | MIC [13] [µM] | other results |
| --- | --- | --- | --- | --- | --- | --- | --- | --- | --- | --- | --- | --- | --- | --- |
| O=C(COc1ccccc1)Nc1cccc2[nH]ccc12 [C2, N-(1H-indol-4-yl)-2-phenoxyacetamide] | 75 (≈ 20 µg/mL) | 25 (≈ 6.66 µg/mL) | 25 (≈ 6.66 µg/mL) | 25 (≈ 6.66 µg/mL) | 25 (≈ 6.66 µg/mL) | 75 (≈ 20 µg/mL) | 75 (≈ 20 µg/mL) | 75 (≈ 20 µg/mL) | resistant | 25 (≈ 6.66 µg/mL) | cross-resistant | 25 (≈ 6.66 µg/mL) | 75 (≈ 20 µg/mL) | – |
| O=C(Nc1cccc2[nH]ccc12)C1CCCCC1 [C3, N-(1H-indol-4-yl)cyclohexanecarboxamide] | >100 | >100 | >100 | >100 | >100 | >100 | >100 | >100 | – | >100 | cross-resistant | >100 | >100 | – |
| N[C@@H](Cc1c[nH]c2ccccc12)C(=O)O [L-Trp, L-tryptophan] | – | – | – | – | – | – | – | – | – | – | – | – | – | loss of sensitivity to allosteric inhibition, H170R vs WT [14]: 250 times |
| CNS(=O)(=O)c1ccc2c(c1)CCN2C(=O)c1ccc(C)s1 [C5, reference compound] | 0.39 (≈ 0.131 µg/mL) | 0.39 (≈ 0.131 µg/mL) | 0.19 (≈ 0.0639 µg/mL) | 0.098 (≈ 0.033 µg/mL) | 0.39 (≈ 0.131 µg/mL) | 0.39 (≈ 0.131 µg/mL) | 0.39 (≈ 0.131 µg/mL) | 0.39 (≈ 0.131 µg/mL) | – | 0.19 (≈ 0.0639 µg/mL) | – | 0.39 (≈ 0.131 µg/mL) | 0.39 (≈ 0.131 µg/mL) | cross-resistance of mutants raised against C1 [11]: None of the resistant mutants raised against C1 were cross-resistant; susceptibility of one C1R mutant relative to WT [11]: more susceptible |
| NNC(=O)c1ccncc1 [INH, isoniazid, reference compound] | 0.12 (≈ 0.0165 µg/mL) | 0.12 (≈ 0.0165 µg/mL) | 0.12 (≈ 0.0165 µg/mL) | 0.12 (≈ 0.0165 µg/mL) | 0.12 (≈ 0.0165 µg/mL) | 0.12 (≈ 0.0165 µg/mL) | 0.12 (≈ 0.0165 µg/mL) | 0.12 (≈ 0.0165 µg/mL) | not | 0.12 (≈ 0.0165 µg/mL) | – | 0.12 (≈ 0.0165 µg/mL) | 0.12 (≈ 0.0165 µg/mL) | – |
| Nc1cccc2[nH]ccc12 [4-AI, 4-aminoindole, reference compound] | 4.68 (≈ 0.619 µg/mL) | 100 (≈ 13.2 µg/mL) | 100 (≈ 13.2 µg/mL) | 100 (≈ 13.2 µg/mL) | 100 (≈ 13.2 µg/mL) | 4.68 (≈ 0.619 µg/mL) | 4.68 (≈ 0.619 µg/mL) | 4.68 (≈ 0.619 µg/mL) | resistant | 100 (≈ 13.2 µg/mL) | – | 100 (≈ 13.2 µg/mL) | 4.68 (≈ 0.619 µg/mL) | shift in MIC [5]: approximately 4 fold; cross-resistance of C5R mutants [15]: no cross-resistance; cross-resistance of amiC mutants [11]: not cross-resistant; resistance of trpABE mutants [11]: highly resistant |
| O=C(Nc1cccc2[nH]ccc12)c1ccc(OCC(F)(F)F)cn1 [C4, N-(1H-indol-4-yl)-5-(2,2,2-trifluoroethoxy)picolinamide] | 75 (≈ 25.1 µg/mL) | 25 (≈ 8.38 µg/mL) | 25 (≈ 8.38 µg/mL) | 25 (≈ 8.38 µg/mL) | 25 (≈ 8.38 µg/mL) | 75 (≈ 25.1 µg/mL) | 75 (≈ 25.1 µg/mL) | 75 (≈ 25.1 µg/mL) | – | 25 (≈ 8.38 µg/mL) | cross-resistant | 25 (≈ 8.38 µg/mL) | 75 (≈ 25.1 µg/mL) | – |
| N-(1H-indol-4-yl)-6-(2,2,2-trifluoroethoxy)nicotinamide [C1] | >100 | 6.25 | 6.25 | 6.25 | 6.25 | >100 | >100 | >100 | resistant | 6.25 | – | 6.25 | >100 | change in MIC on overexpression of AmiC [16]: did not result in a noticeable change in MIC; cross-resistance of C5R mutants [15]: no cross-resistance |
